# Earlier results as cited in US20030168224A1, “Novel phosphorous-nitrogen compounds used as fireproofing agents in theroplastic molding materials and the production thereof” (priority 2000, published 2003).
# Legend:
# [1] = prior-art product
# [2] = prior-art product; remark: listed apart in the source
smiles,measurement,setting,value
"N.O=C1NC(=O)NP(=S)(S)N1 [ammonium 4,6-dioxo-2-thiooxohexahydro-1,3,5,2-λ^5-triazaphosphorinane-2-thiolate]",solubility in hot water,[1],highly soluble
same,decomposition temperature,[2],230 °C
